According to patent US10370372B2, “Fused pyrimidine compound or salt thereof” (TAIHO PHARMACEUTICAL CO., LTD., priority 2015, dated 2019):
Like-named read-outs stand apart in the source and are kept apart here.

Columns and labels:
Assay type in all cases: cell-based
[1] = tested on: AR positive human prostate cancer cells VCaP; assay: Agonist activity for AR: cell proliferation rate of VCaP cells; settings: 5-10000 nmol/L, 72 hours, relative to evaluation medium only, more than 10% = agonist activity
Procedure: Then, the number of viable cells was measured (test group). As a control, the cells were cultured after being added with the evaluation medium only, and the number of viable cells was measured (control group). The number of viable cells was measured by using CellTiter-Glo™ Luminescent Cell Viability Assay (Promega). From the measured number of viable cells, cell proliferation rate with respect to the compound of Examples or the compound of Comparative Examples was calculated based on the number of viable cells measured in the case of using the evaluation medium only. Cell proliferation rate (%)=(Number of viable cells in test group−Number of viable cells in control group)/(Number of viable cells in control group)×100
By considering an error in the number of viable cells measured in the case of using the evaluation medium only, when the cell proliferation rate was more than 10% at any concentration of the 8 concentrations which had been evaluated, it was determined to have an agonist activity for AR.

[2] = tested on: AR expression in LNCaP; assay: Activity of reducing expression level of androgen receptor (Western blotting in LNCaP); settings: Homo sapiens, read-out: AR expression reducing activity
Procedure: AR positive human prostate cancer cells LNCaP were seeded in a 6 well microplate (BD) at 3.5×10^5/well with RPMI1640 containing 5% FBS (hereinbelow, the medium is referred to as an evaluation medium), and then cultured overnight. […] After culture for 48 hours, the medium was removed and the cells were washed with PBS and added with 0.1 mL of Lysis buffer (M-PER added with Protease Inhibitor Cocktail), followed by keeping at 4° C. for 20 minutes. After cell lysis, the cell solution was centrifuged to recover the supernatant as cell lysate. […] The antibody-reacting band (anti AR receptor) was quantified by LAS Imaging System (FUJIFILM) using Super Signal West Dura Substrate (Thermo Scientific) as a detection reagent.
When the AR expression reducing activity is 50% or more, it is described as “reduced”.

[3] = molecular target: T1, human androgen receptor (Homo sapiens, UniProt P10275); assay: Antagonist activity for AR: MMTV-luc reporter transcription in COS-7 cells transfected with human AR, stimulated with DHT
T1 construct: expressed in transfected cells; host or cells: COS-7 cells (ATCC)
T1 sequence (P10275 1-920): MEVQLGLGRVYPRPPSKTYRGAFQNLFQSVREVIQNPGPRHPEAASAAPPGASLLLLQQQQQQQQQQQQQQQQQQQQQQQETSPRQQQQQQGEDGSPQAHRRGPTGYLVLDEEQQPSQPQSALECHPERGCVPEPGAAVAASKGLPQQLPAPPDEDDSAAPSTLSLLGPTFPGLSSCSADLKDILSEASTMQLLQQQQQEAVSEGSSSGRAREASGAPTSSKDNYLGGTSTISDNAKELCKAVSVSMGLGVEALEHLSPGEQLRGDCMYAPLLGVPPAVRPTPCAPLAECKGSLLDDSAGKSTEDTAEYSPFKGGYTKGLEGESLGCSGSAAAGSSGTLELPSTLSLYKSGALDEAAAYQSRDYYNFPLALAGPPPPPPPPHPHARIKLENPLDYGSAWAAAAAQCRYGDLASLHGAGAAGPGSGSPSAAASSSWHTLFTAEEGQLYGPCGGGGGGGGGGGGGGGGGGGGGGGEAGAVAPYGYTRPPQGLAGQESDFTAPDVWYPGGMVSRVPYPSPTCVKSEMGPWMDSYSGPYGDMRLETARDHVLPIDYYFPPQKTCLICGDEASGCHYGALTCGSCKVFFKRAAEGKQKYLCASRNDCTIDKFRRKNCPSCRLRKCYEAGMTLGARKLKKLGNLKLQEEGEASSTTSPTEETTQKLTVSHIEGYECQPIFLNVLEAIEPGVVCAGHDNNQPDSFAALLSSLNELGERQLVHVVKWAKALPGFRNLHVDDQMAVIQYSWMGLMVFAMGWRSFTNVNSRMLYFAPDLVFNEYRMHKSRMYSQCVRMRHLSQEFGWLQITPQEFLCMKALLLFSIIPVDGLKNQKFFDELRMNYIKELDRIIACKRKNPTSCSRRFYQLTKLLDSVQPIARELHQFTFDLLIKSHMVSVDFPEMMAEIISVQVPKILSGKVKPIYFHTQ
Procedure: Antagonist activity for AR was evaluated according to the following method. COS-7 cells (ATCC) were transfected with pMMTV-luc vector (reporter plasmid having, as an androgen response element, […] long terminal repeat) and pEX-hAR vector (human androgen receptor expression vector: which expresses human AR gene under control of CMV promoter) by using Nucleofector (registered trademark) Kit R (Lonza) as a transfection reagent and Amaxa (Lonza). The COS-7 cells obtained after transfection were seeded in a clear bottom 96 well microplate (BD) at 1.5×10^4/well with phenol red free RPMI1640 containing 10% charcoal-treated fetal bovine serum (hereinbelow, DCC-FBS) (hereinbelow, the medium is referred to as an evaluation medium), and then cultured overnight. […] Then, the transcription activity value of the reporter plasmid was measured. The transcription activity was measured by using Bright-Glo™ Luciferase Assay System (Promega).

[4] = tested on: Human prostate cancer cells LNCaP; assay: Inhibitory activity on androgen-dependent proliferation of prostate cancer cells; settings: 1 nmol/L DHT, 72 hours, Cell Counting Kit-8, read-out: Proliferation inhibition concentration GI50 value
Procedure: Human prostate cancer cells LNCaP (Non-Patent Literature 5) having […] androgen receptor gene were seeded in a clear bottom 96 well microplate (BD) at 4.0×10^3/well with phenol red free RPMI1640 containing 5% DCC-FBS (hereinbelow, the medium is referred to as an evaluation medium), and then cultured overnight. […] Then, the number of viable cells was measured. The number of viable cells was measured by using Cell Counting Kit-8 (DOJINDO LABORATORIES).

[5] = COS-7 cells with pMMTV-luc and pEX-hAR, 1 nmol/L DHT, 24 hours, read-out: AR antagonist IC50
[6] = 10000 nmol/L, 48 hours, vs evaluation medium control

Row | SMILES | Cell proliferation rate (%) [1] [%] | inhibition at 10 µM ([2]; 48 h) [%] | IC50 [3] [nM] | GI50 [4] [nM] | IC50 [3, 5] [nM] | inhibition at 10 µM [2, 6] [%]
1 | N#Cc1ccc(N2CCc3c(ncnc3Nc3ccc(C(=O)NC4CC4)nn3)C2)cc1C(F)(F)F [Example 9, 6-((7-(4-cyano-3-(trifluoromethyl)phenyl)-5,6,7,8-tetrahydropyrido[3,4-d]pyrimidin-4-yl)amino)-N-cyclopropylpyridazine-3-carboxamide] | −3.0 | > 50 | 30 | 510 | – | –
2 | CC(C)(O)c1ccc(Nc2ncnc3c2CCN(c2ccc([N+](=O)[O-])c(C(F)(F)F)c2)C3)nc1 [Example 14, 2-(6-((7-(4-nitro-3-(trifluoromethyl)phenyl)-5,6,7,8-tetrahydropyrido[3,4-d]pyrimidin-4-yl)amino)pyridin-3-yl)propan-2-ol] | 1.4 | > 50 | 70 | 1200 | – | –
3 | CC(C)(O)c1ccc(Nc2ncnc3c2CCN(c2ccc([N+](=O)[O-])c(Cl)c2F)C3)nc1 [Example 18, 2-(6-((7-(3-chloro-2-fluoro-4-nitrophenyl)-5,6,7,8-tetrahydropyrido[3,4-d]pyrimidin-4-yl)amino)pyridin-3-yl)propan-2-ol] | 9.5 | – | – | – | 1000 | –
4 | CCNC(=O)c1ccc(Nc2ncnc3c2CCN(c2ccc(C#N)c(C(F)(F)F)c2)C3)nc1 [Example 5, 6-((7-(4-cyano-3-(trifluoromethyl)phenyl)-5,6,7,8-tetrahydropyrido[3,4-d]pyrimidin-4-yl)amino)-N-ethylnicotinamide] | −1.9 | > 50 | 100 | 120 | – | –
5 | N#Cc1ccc(N2CCc3c(ncnc3Nc3ccc(C4(O)COC4)c(F)n3)C2)cc1Cl [Example 35, 2-Chloro-4-(4-((6-fluoro-5-(3-hydroxyoxetan-3-yl)pyridin-2-yl)amino)-5,6-dihydropyrido[3,4-d]pyrimidin-7(8H)-yl)benzonitrile] | 9.4 | > 50 | – | – | 120 | –
6 | COc1ccc(Nc2nc(C)nc3c2CCN(c2ccc(C#N)c(C(F)(F)F)c2)C3)cc1 [Example 48, 4-(4-((4-Methoxyphenyl)amino)-2-methyl-5,6-dihydropyrido[3,4-d]pyrimidin-7(8H)-yl)-2-(trifluoromethyl)benzonitrile] | −1.6 | > 50 | – | 610 | 1000 | –
7 | COc1cc(N2CCc3c(ncnc3Nc3ccc(C(C)(C)O)cn3)C2)ccc1C#N [Example 23, 4-(4-((5-(2-Hydroxypropan-2-yl)pyridin-2-yl)amino)-5,6-dihydropyrido[3,4-d]pyrimidin-7(8H)-yl)-2-methoxybenzonitrile] | 2.3 | – | – | 2600 | 19 | > 50
8 | N#Cc1ccc(N2CCc3c(ncnc3Nc3ccc4c(c3)CNCC4)C2)cc1Cl [Example 37, 2-Chloro-4-(4-((1,2,3,4-tetrahydroisoquinolin-7-yl)amino)-5,6-dihydropyrido[3,4-d]pyrimidin-7(8H)-yl)benzonitrile] | 4.6 | > 50 | 690 | 990 | – | –
9 | CNC(=O)c1ccc(Nc2ncnc3c2CCN(c2ccc(C#N)c(C(F)(F)F)c2)C3)nc1F [Example 3, 6-((7-(4-cyano-3-(trifluoromethyl)phenyl)-5,6,7,8-tetrahydropyrido[3,4-d]pyrimidin-4-yl)amino)-2-fluoro-N-methylnicotinamide] | 8.9 | > 50 | 31 | 360 | – | –
10 | N#Cc1ccc(N2CCc3c(ncnc3Nc3ccc(OC(F)(F)F)cc3)C2)cc1C(F)(F)F [Example 27, 4-(4-((4-(trifluoromethoxy)phenyl)amino)-5,6-dihydropyrido[3,4-d]pyrimidin-7(8H)-yl)-2-(trifluoromethyl)benzonitrile] | 3.8 | > 50 | 1000 | 1000 | – | –
11 | CNC(=O)c1ccc(Nc2ncnc3c2CCN(c2ccc(C#N)c(Cl)c2)C3)nc1F [Example 2, 6-((7-(3-chloro-4-cyanophenyl)-5,6,7,8-tetrahydropyrido[3,4-d]pyrimidin-4-yl)amino)-2-fluoro-N-methylnicotinamide] | – | > 50 | 33 | 290 | – | –
12 | CCNC(=O)c1ccc(Nc2ncnc3c2CCN(c2ccc(C#N)c(C(F)(F)F)c2)C3)nn1 [Example 10, 6-((7-(4-cyano-3-(trifluoromethyl)phenyl)-5,6,7,8-tetrahydropyrido[3,4-d]pyrimidin-4-yl)amino)-N-ethylpyridazine-3-carboxamide] | – | > 50 | 7 | 400 | – | –
13 | COc1cc(N2CCc3c(ncnc3Nc3ccc(C(C)(C)O)cn3)C2)ccc1[N+](=O)[O-] [Example 15, 2-(6-((7-(3-methoxy-4-nitrophenyl)-5,6,7,8-tetrahydropyrido[3,4-d]pyrimidin-4-yl)amino)pyridin-3-yl)propan-2-ol] | 7.7 | – | – | 3000 | 260 | –
14 | CC(O)(CS(=O)(=O)c1ccc(F)cc1)C(=O)Nc1ccc(C#N)c(C(F)(F)F)c1 (stereo not shown) [Bicalutamide, reference compound] | 36 | < 10 | – | 2300 | – | –
15 | N#Cc1ccc(N2CCc3c(ncnc3Nc3ccc(OCCCN4CCNCC4)c(C(F)(F)F)c3)C2)cc1Cl [Example 38, 2-chloro-4-(4-((4-(3-(piperazin-1-yl)propoxy)-3-(trifluoromethyl)phenyl)amino)-5,6-dihydropyrido[3,4-d]pyrimidin-7(8H)-yl)benzonitrile] | −1.3 | – | 950 | 120 | – | –
16 | Cc1cc(N2CCc3c(ncnc3Nc3ccc(C(C)(C)O)cn3)C2)ccc1C#N [Example 20, 4-(4-((5-(2-hydroxypropan-2-yl)pyridin-2-yl)amino)-5,6-dihydropyrido[3,4-d]pyrimidin-7(8H)-yl)-2-methylbenzonitrile] | −0.89 | – | – | – | 480 | > 50
